ChEMBL document CHEMBL1151200, “Comparison of fascaplysin and related alkaloids: a study of structures, cytotoxicities, and sources” (J Nat Prod, 2004)

Legend:
L1210 [1] = assay: Cytotoxicity against mouse L1210 cells at 18 ug/disk by disk diffusion soft agar colony formation assay; type: functional
[2] = Cytotoxicity against mouse CFU-GM cells at 18 ug/disk by disk diffusion soft agar colony formation assay; type: cell-based
CCRF-CEM [3] = assay: Cytotoxicity against human CEM cells at 18 ug/disk by disk diffusion soft agar colony formation assay; type: functional
[4] = Cytotoxicity against human H116 cells at 18 ug/disk by disk diffusion soft agar colony formation assay; type: functional
[5] = Cytotoxicity against human H125 cells at 18 ug/disk by disk diffusion soft agar colony formation assay; type: functional
MC-38 [6] = assay: Cytotoxicity against mouse C38 cells at 18 ug/disk by disk diffusion soft agar colony formation assay; type: functional
L1210 [7] = assay: Cytotoxicity against mouse L1210 cells at 64 ug/disk by disk diffusion soft agar colony formation assay; type: functional
MC-38 [8] = assay: Cytotoxicity against mouse C38 cells at 64 ug/disk by disk diffusion soft agar colony formation assay; type: functional
[9] = Cytotoxicity against human H125 cells at 64 ug/disk by disk diffusion soft agar colony formation assay; type: functional
CCRF-CEM [10] = assay: Cytotoxicity against human CEM cells at 64 ug/disk by disk diffusion soft agar colony formation assay; type: functional
[11] = Cytotoxicity against human H116 cells at 64 ug/disk by disk diffusion soft agar colony formation assay; type: functional
UO-31 = assay: Antitumor activity against human UO31 cells; type: functional, cell-based
MDA-MB-435 = assay: Antitumor activity against human MDA-MB-435 cells; type: functional, cell-based
SN12C = assay: Antitumor activity against human SN12C cells; type: functional, cell-based
L1210 [12] = assay: Cytotoxicity against mouse L1210 cells 6.4 ug/disk by disk diffusion soft agar colony formation assay; type: functional
[13] = Cytotoxicity against mouse CFU-GM cells at 6.4 ug/disk by disk diffusion soft agar colony formation assay; type: cell-based
SK-MEL-5 = assay: Antitumor activity against human SK-MEL-5 cells; type: functional, cell-based
CAKI-1 = assay: Antitumor activity against human Caki1 cells; type: functional, cell-based
SF-268 = assay: Antitumor activity against human SF268 cells; type: functional, cell-based
MCF7 [14] = assay: Antitumor activity against […] human MCF7 cells; type: functional, cell-based
LOX IMVI = assay: Antitumor activity against human LOXIMVI cells; type: functional, cell-based
SK-OV-3 = assay: Antitumor activity against human SKOV3 cells; type: functional, cell-based
IGROV-1 = assay: Antitumor activity against human IGROV1 cells; type: functional, cell-based
Malme-3M = assay: Antitumor activity against human MALME-3M cells; type: functional, cell-based
OVCAR-5 = assay: Antitumor activity against human OVCAR5 cells; type: functional, cell-based
SNB-19 = assay: Antitumor activity against human SNB19 cells; type: functional, cell-based
UACC-62 = assay: Antitumor activity against human UACC62 cells; type: functional, cell-based
MC-38 [15] = assay: Cytotoxicity against mouse C38 cells at 6.4 ug/disk by disk diffusion soft agar colony formation assay; type: functional
K562 = assay: Antitumor activity against human K562 cells; type: functional, cell-based
UACC-257 = assay: Antitumor activity against human UACC257 cells; type: functional, cell-based
EKVX = assay: Antitumor activity against human EKVX cells; type: functional, cell-based
NCI-H226 = assay: Antitumor activity against human NCI-H226 cells; type: functional, cell-based
BT-549 = assay: Antitumor activity against human BT549 cells; type: functional, cell-based
SW-620 = assay: Antitumor activity against human SW620 cells; type: functional, cell-based
NCI-H23 = assay: Antitumor activity against human NCI-H23 cells; type: functional, cell-based
COLO 205 = assay: Antitumor activity against human COLO205 cells; type: functional, cell-based
RPMI-8226 = assay: Antitumor activity against human RPMI8226 cells; type: functional, cell-based
KM12 = assay: Antitumor activity against human KM12 cells; type: functional, cell-based
A498 = assay: Antitumor activity against human A498 cells; type: functional, cell-based
HCT-116 = assay: Antitumor activity against human HCT116 cells; type: functional, cell-based
[16] = Cytotoxicity against human H116 cells at 6.4 ug/disk by disk diffusion soft agar colony formation assay; type: functional
OVCAR-8 = assay: Antitumor activity against human OVCAR8 cells; type: functional, cell-based
NCI-H460 = assay: Antitumor activity against human NCI-H460 cells; type: functional, cell-based
M14 = assay: Antitumor activity against human M14 cells; type: functional, cell-based
ACHN = assay: Antitumor activity against human ACHN cells; type: functional, cell-based
[17] = Cytotoxicity against human H125 cells at 6.4 ug/disk by disk diffusion soft agar colony formation assay; type: functional
U-251 = assay: Antitumor activity against human U251 cells; type: functional, cell-based
A549 = assay: Antitumor activity against human A549/ATCC cells; type: functional, cell-based
HOP-92 = assay: Antitumor activity against human HOP92 cells; type: functional, cell-based
HOP-62 = assay: Antitumor activity against human HOP62 cells; type: functional, cell-based
SF-295 = assay: Antitumor activity against human SF295 cells; type: functional, cell-based
SR = assay: Antitumor activity against human SR cells; type: functional, cell-based
[18] = Antitumor activity against human 786-O cells; type: functional, cell-based; conditions: 786-0
RXF 393 = assay: Antitumor activity against human RXF393 cells; type: functional, cell-based
SNB-75 = assay: Antitumor activity against human SNB75 cells; type: functional, cell-based
OVCAR-3 = assay: Antitumor activity against human OVCAR-3 cells; type: functional, cell-based
SK-MEL-28 = assay: Antitumor activity against human SK-MEL-28 cells; type: functional, cell-based
[19] = Antitumor activity against human Hs 578T cells; type: functional, cell-based
T47D = assay: Antitumor activity against human T47D cells; type: functional, cell-based
PC-3 = assay: Antitumor activity against human PC3 cells; type: functional, cell-based
HL-60(TB) = assay: Antitumor activity against human HL-60(TB) cells; type: functional, cell-based
MOLT-4 = assay: Antitumor activity against human MOLT4 cells; type: functional, cell-based
NCI-H322M = assay: Antitumor activity against human NCI-H322M cells; type: functional, cell-based
MCF7 [20] = assay: Antitumor activity against human MCF7 cells; type: functional, cell-based
TK-10 = assay: Antitumor activity against human TK10 cells; type: functional, cell-based
HCC 2998 = assay: Antitumor activity against human HCC2998 cells; type: functional, cell-based
CCRF-CEM [21] = assay: Cytotoxicity against human CEM cells at 6.4 ug/disk by disk diffusion soft agar colony formation assay; type: functional
HCT-15 = assay: Antitumor activity against human HCT15 cells; type: functional, cell-based
NCI-H522 = assay: Antitumor activity against human NCI-H522 cells; type: functional, cell-based
OVCAR-4 = assay: Antitumor activity against human OVCAR4 cells; type: functional, cell-based
MDA-N = assay: Antitumor activity against human MDA-N cells; type: functional, cell-based
HT-29 = assay: Antitumor activity against human HT-29 cells; type: functional, cell-based
SF-539 = assay: Antitumor activity against human SF539 cells; type: functional, cell-based
DU-145 = assay: Antitumor activity against human DU145 cells; type: functional, cell-based
CCRF-CEM [22] = assay: Antitumor activity against human CCRF-CEM cells; type: functional, cell-based
MDA-MB-231 = assay: Antitumor activity against human MDA-MB-231 cells; type: functional, cell-based

## COC(=O)c1ccccc1-[n+]1ccc2c(c1)[nH]c1ccccc12.[Cl-] [RETICULATINE]
L1210 [1]
  Activity: 450 Zone units
[2]
  Activity: 350 Zone units
CCRF-CEM [3]
  Activity: 500 Zone units
[4]
  Activity: 500 Zone units
[5]
  Activity: 600 Zone units
MC-38 [6]
  Activity: 600 Zone units

## O=C(O)c1ccccc1-[n+]1ccc2c(c1)[nH]c1ccccc12.[Cl-] [RETICULATATE]
L1210 [7]
  Activity: 650 Zone units
MC-38 [8]
  Activity: 700 Zone units
[9]
  Activity: 500 Zone units
CCRF-CEM [10]
  Activity: 350 Zone units
[11]
  Activity: 650 Zone units

## O=C1c2ccc(Br)cc2-[n+]2ccc3c([nH]c4ccccc43)c21.[Cl-]
UO-31
  IC50: 0.53 µM
MDA-MB-435
  IC50: > 10 µM
SN12C
  IC50: 2.9 µM
L1210 [12]
  Activity: 500 Zone units
[13]
  Activity: 400 Zone units
SK-MEL-5
  IC50: > 10 µM
CAKI-1
  IC50: 1.6 µM
SF-268
  IC50: 5.6 µM
MCF7 [14]
  IC50: 5.3 µM
LOX IMVI
  IC50: > 10 µM
SK-OV-3
  IC50: > 10 µM
IGROV-1
  IC50: 0.74 µM
Malme-3M
  IC50: 0.49 µM
OVCAR-5
  IC50: > 10 µM
SNB-19
  IC50: 0.66 µM
UACC-62
  IC50: 0.63 µM
MC-38 [15]
  Activity: 400 Zone units
K562
  IC50: > 10 µM
UACC-257
  IC50: 5.3 µM
EKVX
  IC50: 3.6 µM
NCI-H226
  IC50: 5.3 µM
BT-549
  IC50: 0.59 µM
SW-620
  IC50: > 10 µM
NCI-H23
  IC50: 0.89 µM
COLO 205
  IC50: > 10 µM
RPMI-8226
  IC50: > 10 µM
KM12
  IC50: 8.5 µM
A498
  IC50: > 10 µM
HCT-116
  IC50: 0.76 µM
[16]
  Activity: 600 Zone units
OVCAR-8
  IC50: 0.6 µM
NCI-H460
  IC50: > 10 µM
M14
  IC50: 0.59 µM
ACHN
  IC50: > 10 µM
[17]
  Activity: 550 Zone units
U-251
  IC50: > 10 µM
A549
  IC50: > 10 µM
HOP-92
  IC50: > 10 µM
HOP-62
  IC50: > 10 µM
SF-295
  IC50: 0.59 µM
SR
  IC50: > 10 µM
[18]
  IC50: 7.1 µM
RXF 393
  IC50: 3.1 µM
SNB-75
  IC50: 3.8 µM
OVCAR-3
  IC50: 4.4 µM
SK-MEL-28
  IC50: 1.3 µM
[19]
  IC50: 0.59 µM
T47D
  IC50: > 10 µM
PC-3
  IC50: > 10 µM
HL-60(TB)
  IC50: > 10 µM
MOLT-4
  IC50: > 10 µM
NCI-H322M
  IC50: 0.65 µM
MCF7 [20]
  IC50: 0.93 µM
TK-10
  IC50: > 10 µM
HCC 2998
  IC50: 0.91 µM
CCRF-CEM [21]
  Activity: 400 Zone units
HCT-15
  IC50: > 10 µM
NCI-H522
  IC50: 0.68 µM
OVCAR-4
  IC50: 0.59 µM

## CC1=C(CC/C(C)=C/CC/C(C)=C/CCC(CC(=O)O)C(=O)[O-])C(C)(C)CCC1.O=C1c2ccccc2-[n+]2ccc3c([nH]c4ccccc43)c21 (configuration not stated) [FASCAPLYSIN A]
UO-31
  IC50: 5.6 µM
MDA-MB-435
  IC50: 0.57 µM
SN12C
  IC50: 3.2 µM
SK-MEL-5
  IC50: 0.53 µM
CAKI-1
  IC50: 7.3 µM
SF-268
  IC50: 5.7 µM
MCF7 [14]
  IC50: > 10 µM
LOX IMVI
  IC50: 6.3 µM
SK-OV-3
  IC50: 7.7 µM
IGROV-1
  IC50: 1.7 µM
Malme-3M
  IC50: 0.54 µM
OVCAR-5
  IC50: 5.8 µM
MDA-N
  IC50: 0.58 µM
SNB-19
  IC50: 5.4 µM
HT-29
  IC50: 1.4 µM
SF-539
  IC50: 2.2 µM
UACC-62
  IC50: 3.2 µM
K562
  IC50: > 10 µM
UACC-257
  IC50: 3.8 µM
EKVX
  IC50: 5.2 µM
NCI-H226
  IC50: 8.3 µM
BT-549
  IC50: 5.1 µM
SW-620
  IC50: 3.9 µM
NCI-H23
  IC50: 5.1 µM
COLO 205
  IC50: 0.83 µM
RPMI-8226
  IC50: > 10 µM
DU-145
  IC50: 5.6 µM
KM12
  IC50: 7.3 µM
HCT-116
  IC50: 1.6 µM
OVCAR-8
  IC50: 5.3 µM
NCI-H460
  IC50: 6.4 µM
M14
  IC50: 4.2 µM
ACHN
  IC50: 5.5 µM
U-251
  IC50: 4.1 µM
A549
  IC50: 7.6 µM
CCRF-CEM [22]
  IC50: > 10 µM
HOP-92
  IC50: 1 µM
HOP-62
  IC50: 5.1 µM
SF-295
  IC50: 5.2 µM
SR
  IC50: > 10 µM
[18]
  IC50: 5.1 µM
RXF 393
  IC50: 3.5 µM
SNB-75
  IC50: 5.2 µM
OVCAR-3
  IC50: 3.1 µM
SK-MEL-28
  IC50: 3.9 µM
[19]
  IC50: > 10 µM
T47D
  IC50: 6.6 µM
PC-3
  IC50: 5.4 µM
HL-60(TB)
  IC50: > 10 µM
MOLT-4
  IC50: > 10 µM
NCI-H322M
  IC50: 4.3 µM
MCF7 [20]
  IC50: 5 µM
TK-10
  IC50: > 10 µM
HCC 2998
  IC50: 3.8 µM
MDA-MB-231
  IC50: 6.8 µM
HCT-15
  IC50: 5.8 µM
NCI-H522
  IC50: 6.3 µM
OVCAR-4
  IC50: 4.5 µM

## O=C(O)c1ccc(Br)cc1-[n+]1ccc2c(c1)[nH]c1ccccc12.[Cl-]
L1210 [7]
  Activity: 100 Zone units
MC-38 [8]
  Activity: 250 Zone units
[9]
  Activity: 0 Zone units
[11]
  Activity: 0 Zone units
